What was measured:
Assay type in all cases: binding
Design in all cases: KINOMEscan: ABL1(F317L)-phosphorylated / KINOMEscan: ABL1(H396P)-nonphosphorylated / KINOMEscan: ABL1(H396P)-phosphorylated / KINOMEscan: ABL1(M351T)-phosphorylated / KINOMEscan: ABL1(T315I)-phosphorylated / KINOMEscan: ABL1-nonphosphorylated / KINOMEscan: ABL1-phosphorylated / KINOMEscan: ACVR2A / KINOMEscan: ACVR2B / KINOMEscan: ADCK3 / KINOMEscan: ADCK4 / KINOMEscan: AKT1 / KINOMEscan: AKT3 / KINOMEscan: ALK / KINOMEscan: ARK5 / KINOMEscan: AURKA / KINOMEscan: AURKC / KINOMEscan: BIKE / KINOMEscan: BMPR1A / KINOMEscan: BMPR1B / KINOMEscan: BMX / KINOMEscan: BRK / KINOMEscan: BRSK1 / KINOMEscan: BRSK2 / KINOMEscan: CAMK1 / KINOMEscan: CAMK1D / KINOMEscan: CAMK1G / KINOMEscan: CAMK2A / KINOMEscan: CAMK2B / KINOMEscan: AAK1 / KINOMEscan: CAMK2D / KINOMEscan: CAMK2G / KINOMEscan: ABL1(F317I)-nonphosphorylated / KINOMEscan: ABL1(F317I)-phosphorylated / KINOMEscan: ABL1(F317L)-nonphosphorylated: unit: % Ctrl
[1] = molecular target: T1, panel of 442 kinases (Homo sapiens, UniProt P36897); details: kinase TGFBR1; compound concentration 10 µM
T1 construct: purchased KINOMEscan
T1 sequence (P36897 34-503): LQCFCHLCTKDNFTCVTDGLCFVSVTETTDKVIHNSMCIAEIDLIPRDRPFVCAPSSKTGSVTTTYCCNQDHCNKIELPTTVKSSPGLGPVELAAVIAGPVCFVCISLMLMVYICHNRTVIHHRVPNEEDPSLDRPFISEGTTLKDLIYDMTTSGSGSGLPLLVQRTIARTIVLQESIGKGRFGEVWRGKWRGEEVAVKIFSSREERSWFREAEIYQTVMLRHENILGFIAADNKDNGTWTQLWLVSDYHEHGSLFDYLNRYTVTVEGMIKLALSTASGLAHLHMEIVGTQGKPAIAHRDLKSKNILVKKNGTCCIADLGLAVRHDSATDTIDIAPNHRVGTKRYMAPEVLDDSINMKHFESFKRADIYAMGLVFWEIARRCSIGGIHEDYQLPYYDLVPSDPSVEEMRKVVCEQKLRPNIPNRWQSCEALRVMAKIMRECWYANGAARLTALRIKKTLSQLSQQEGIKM
Text: (§1) We assessed the selectivity of members of this scaffold using the KINOMEscan methodology across a near comprehensive panel of 442 kinases [[18,27]].

[2] = molecular target: T2, panel of 442 kinases (Homo sapiens, UniProt P00533, T790M); details: Compound Concentration 10 µM
T2 construct: purchased KINOMEscan
Text: as §1

[3] = molecular target: T3, panel of 442 kinases (Homo sapiens, UniProt Q96NX5); details: Compound Concentration 10 µM
T3 construct: purchased KINOMEscan
Text: as §1

T3 sequence (Q96NX5 whole entry): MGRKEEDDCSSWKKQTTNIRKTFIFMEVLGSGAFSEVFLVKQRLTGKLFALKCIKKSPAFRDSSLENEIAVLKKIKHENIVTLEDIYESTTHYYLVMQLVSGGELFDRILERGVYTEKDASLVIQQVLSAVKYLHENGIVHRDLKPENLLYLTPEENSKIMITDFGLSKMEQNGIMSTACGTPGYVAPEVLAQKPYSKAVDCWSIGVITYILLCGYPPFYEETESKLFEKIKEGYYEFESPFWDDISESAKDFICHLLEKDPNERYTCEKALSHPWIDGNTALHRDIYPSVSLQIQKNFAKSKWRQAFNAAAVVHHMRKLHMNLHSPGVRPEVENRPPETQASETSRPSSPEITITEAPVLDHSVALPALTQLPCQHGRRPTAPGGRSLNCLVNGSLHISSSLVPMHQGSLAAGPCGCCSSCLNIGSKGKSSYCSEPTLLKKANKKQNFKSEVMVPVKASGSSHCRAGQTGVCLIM
T2 sequence (P00533 25-1210 T790M): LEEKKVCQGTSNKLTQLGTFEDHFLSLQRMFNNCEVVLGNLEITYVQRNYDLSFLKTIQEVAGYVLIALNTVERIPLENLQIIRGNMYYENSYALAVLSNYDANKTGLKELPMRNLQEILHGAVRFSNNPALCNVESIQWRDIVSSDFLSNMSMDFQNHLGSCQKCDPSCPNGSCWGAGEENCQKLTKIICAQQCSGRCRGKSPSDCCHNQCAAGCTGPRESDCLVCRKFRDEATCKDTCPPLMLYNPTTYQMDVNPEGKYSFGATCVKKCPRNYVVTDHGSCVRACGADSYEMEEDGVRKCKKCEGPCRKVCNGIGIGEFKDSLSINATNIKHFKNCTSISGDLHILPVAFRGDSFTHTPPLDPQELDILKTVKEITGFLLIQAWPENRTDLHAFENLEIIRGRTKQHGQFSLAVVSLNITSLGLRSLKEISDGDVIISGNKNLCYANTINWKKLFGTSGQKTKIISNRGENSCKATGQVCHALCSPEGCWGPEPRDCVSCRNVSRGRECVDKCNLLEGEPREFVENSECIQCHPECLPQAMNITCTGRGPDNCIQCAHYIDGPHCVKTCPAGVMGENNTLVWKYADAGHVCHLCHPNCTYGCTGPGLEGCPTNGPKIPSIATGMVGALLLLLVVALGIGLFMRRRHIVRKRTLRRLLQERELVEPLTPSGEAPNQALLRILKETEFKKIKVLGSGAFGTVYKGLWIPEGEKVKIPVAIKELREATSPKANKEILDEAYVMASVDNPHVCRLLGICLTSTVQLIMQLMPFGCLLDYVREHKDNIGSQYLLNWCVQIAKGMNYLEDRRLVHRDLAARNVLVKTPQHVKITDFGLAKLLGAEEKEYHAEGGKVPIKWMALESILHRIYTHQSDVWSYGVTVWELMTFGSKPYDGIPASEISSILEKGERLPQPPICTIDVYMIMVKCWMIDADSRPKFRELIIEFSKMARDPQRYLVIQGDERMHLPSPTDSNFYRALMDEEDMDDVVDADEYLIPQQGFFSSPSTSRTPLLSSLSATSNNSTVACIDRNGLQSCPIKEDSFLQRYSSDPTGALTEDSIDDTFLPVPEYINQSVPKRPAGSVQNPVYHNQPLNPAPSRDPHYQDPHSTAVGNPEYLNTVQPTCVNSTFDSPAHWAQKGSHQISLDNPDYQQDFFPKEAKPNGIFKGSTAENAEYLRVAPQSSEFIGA

Row | SMILES | % Ctrl, TGFBR1 [1] | KINOMEscan: EGFR(T790M) [2] | KINOMEscan: CAMK1G [3]
1 | COc1cc(C(=O)N2CCC(N3CCN(C)CC3)CC2)ccc1Nc1ncc2c(n1)N1CCc3cccc(c31)C(=O)N2C [Compound 24] | 100 % Ctrl | 76 | 56
2 | CCOc1cc(C(=O)N2CCC(N3CCN(C)CC3)CC2)ccc1Nc1ncc2c(n1)N(C1CCCC1)c1ccccc1C(=O)N2C [Compound 26] | 100 % Ctrl | 100 | 95
3 | COc1cc(C(=O)N2CCC(N3CCN(C)CC3)CC2)ccc1Nc1ncc2c(n1)N(C1CCCC1)c1ccccc1C(=O)N2C [Compound 25, 11-cyclopentyl-2-((2-methoxy-4-(4-(4-methylpiperazin-1-yl)piperidine-1-carbonyl)phenyl)amino)-5-methyl-5H-benzo[e]pyrimido[5,4-b][1,4]diazepin-6(11H)-one] | 98 % Ctrl | 89 | 90
4 | COc1cc(C(=O)N2CCC(N3CCN(C)CC3)CC2)ccc1Nc1ncc2c(n1)N(C)c1ccccc1C(=O)N2C [15 (LRRK2-IN-1)] | 100 % Ctrl | 88 | 74

Source: publication PMC3914206
